In patent US9447136B2, “Semisynthetic derivatives of Nystatin A1” (BLIRT S.A., priority 2012, dated 2016):

Key:
Experiment in all cases: Antifungal activity in vitro, serial dilution in RPMI 1640
Type in all cases: cell-based
Candida krusei DSM 6128 = details: Table 2A; RPMI 1640, pH 7.0
Method: (§1) For the determination of antifungal activity in vitro we used method of serial dilution in buffered medium RPMI 1640, pH 7.0, in a 96-wells microplates, according to the standard procedure (National Committee for Clinical Laboratory Standards. Reference method for broth dilution antifungal susceptibility testing of yeast, approved standard, 2nd ed. M27-A2 vol. 22 Wayne, Pa., 2002). The optical density of cells suspension was measured using a microplates reader (Victor^3, Perkin-Elmer) at the wavelength λ=531 nm (A531). On the basis of obtained results the diagrams of relation between A531 values and concentration of examined compound were made. From these graphs, the IC50 values were read, which were the interpolated concentrations of a tested compound, at which the A531 value was exactly 50% of the A531 value for the control sample. Moreover, MIC values, that are the lowest concentration of tested compound at which the A531 value were at most 20% of the A531 value measured for the control sample.

[1] = tested on: Candida albicans ATCC 10231; details: Table 2A, RPMI 1640, pH 7.0; for Antifungal activity Candida albicans ATCC 10231 IC50: A531 50% of control; for Antifungal activity Candida albicans ATCC 10231 MIC: A531 at most 20% of control
Method: as §1

[2] = tested on: Candida tropicalis KKP 334; details: Table 2A; RPMI 1640, pH 7.0
Method: as §1

[3] = tested on: Saccharomyces cerevisiae ATCC 9763; details: Table 2A; RPMI 1640, pH 7.0; A531 at most 20% of control
Method: as §1

[4] = tested on: Candida glabrata DSM 11226; details: Table 2A; RPMI 1640, pH 7.0
Method: as §1

[5] = tested on: Candida lusitaniae DSM 70102; details: Table 2A; RPMI 1640, pH 7.0
Method: as §1

SMILES: C[C@@H]1[C@H](O)[C@@H](C)/C=C/C=C/CC/C=C/C=C/C=C/C=C/[C@H](O[C@@H]2O[C@H](C)[C@@H](O)[C@H](NC3CC(=O)N(CCCN(C)C)C3=O)[C@@H]2O)C[C@@H]2O[C@](O)(C[C@@H](O)C[C@@H](O)[C@H](O)CC[C@@H](O)C[C@@H](O)CC(=O)O[C@H]1C)C[C@H](O)[C@H]2C(=O)O (stereo partly drawn) [Compound N6, N—[N′-3-(N″,N″-dimethylamino)propylsuccinimidyl]nystatin A1]
- Antifungal activity Candida krusei DSM 6128 MIC (Candida krusei DSM 6128): 16 µg/mL
- Antifungal activity Candida albicans ATCC 10231 IC50 [1]: 5.52 µg/mL
- Antifungal activity Candida albicans ATCC 10231 MIC [1]: 8 µg/mL
- Antifungal activity Candida tropicalis KKP 334 MIC [2]: 8 µg/mL
- Antifungal activity Saccharomyces cerevisiae ATCC 9763 MIC [3]: 8 µg/mL
- Antifungal activity Candida glabrata DSM 11226 MIC [4]: 16 µg/mL
- Antifungal activity Candida lusitaniae DSM 70102 MIC [5]: 4 µg/mL

SMILES: CC1OC(O[C@H]2/C=C/C=C/C=C/C=C/CC/C=C/C=C/[C@H](C)[C@@H](O)[C@@H](C)[C@H](C)OC(=O)C[C@H](O)C[C@H](O)C[C@H](O)CC[C@@H](O)[C@H](O)CC3(O)C[C@H](O)[C@@H](C(=O)O)[C@H](C2)O3)C(O)C(NC2CC(=O)N(CCN(C)C)C2=O)C1O (stereo partly drawn) [Compound N7, N—[N′-2-(N″,N″-dimethylamino)ethylsuccinimidyl]nystatin A1]
- Antifungal activity Candida krusei DSM 6128 MIC (Candida krusei DSM 6128): 16 µg/mL
- Antifungal activity Candida albicans ATCC 10231 IC50 [1]: 3.99 µg/mL
- Antifungal activity Candida albicans ATCC 10231 MIC [1]: 8 µg/mL
- Antifungal activity Candida tropicalis KKP 334 MIC [2]: 8 µg/mL
- Antifungal activity Saccharomyces cerevisiae ATCC 9763 MIC [3]: 8 µg/mL
- Antifungal activity Candida glabrata DSM 11226 MIC [4]: 8 µg/mL
- Antifungal activity Candida lusitaniae DSM 70102 MIC [5]: 4 µg/mL

SMILES: CC1OC(O[C@H]2/C=C/C=C/C=C/C=C/CC/C=C/C=C/[C@H](C)[C@@H](O)[C@@H](C)[C@H](C)OC(=O)C[C@H](O)C[C@H](O)C[C@H](O)CC[C@@H](O)[C@H](O)CC3(O)C[C@H](O)[C@@H](C(=O)O)[C@H](C2)O3)C(O)C(NC2CC(=O)N(CCN3CCN(C)CC3)C2=O)C1O (stereo partly drawn) [Compound N9, N—[N′-2-(4-methylpiperazin-1-yl)ethylsuccinimidyl]nystatin A1]
- Antifungal activity Candida krusei DSM 6128 MIC (Candida krusei DSM 6128): 16 µg/mL
- Antifungal activity Candida albicans ATCC 10231 IC50 [1]: 5.62 µg/mL
- Antifungal activity Candida albicans ATCC 10231 MIC [1]: 8 µg/mL
- Antifungal activity Candida tropicalis KKP 334 MIC [2]: 8 µg/mL
- Antifungal activity Saccharomyces cerevisiae ATCC 9763 MIC [3]: 8 µg/mL
- Antifungal activity Candida glabrata DSM 11226 MIC [4]: 16 µg/mL
- Antifungal activity Candida lusitaniae DSM 70102 MIC [5]: 4 µg/mL

SMILES: CC1OC(O[C@H]2/C=C/C=C/C=C/C=C/CC/C=C/C=C/[C@H](C)[C@@H](O)[C@@H](C)[C@H](C)OC(=O)C[C@H](O)C[C@H](O)C[C@H](O)CC[C@@H](O)[C@H](O)CC3(O)C[C@H](O)[C@@H](C(=O)O)[C@H](C2)O3)C(O)C(NC2CC(=O)N(CC(C)(C)CN(C)C)C2=O)C1O (stereo partly drawn) [Compound N10, N—[N′-3-(N″,N″-dimethylamino)-2,2-dimethylpropylsuccinimidyl]nystatin A1]
- Antifungal activity Candida krusei DSM 6128 MIC (Candida krusei DSM 6128): 16 µg/mL
- Antifungal activity Candida albicans ATCC 10231 IC50 [1]: 5.47 µg/mL
- Antifungal activity Candida albicans ATCC 10231 MIC [1]: 8 µg/mL
- Antifungal activity Candida tropicalis KKP 334 MIC [2]: 8 µg/mL
- Antifungal activity Saccharomyces cerevisiae ATCC 9763 MIC [3]: 8 µg/mL
- Antifungal activity Candida glabrata DSM 11226 MIC [4]: 16 µg/mL
- Antifungal activity Candida lusitaniae DSM 70102 MIC [5]: 4 µg/mL

SMILES: C[C@@H]1[C@H](O)[C@@H](C)/C=C/C=C/CC/C=C/C=C/C=C/C=C/[C@H](O[C@@H]2O[C@H](C)[C@@H](O)[C@H](NC(=S)NCCN3CCN(C)CC3)[C@@H]2O)C[C@@H]2O[C@](O)(C[C@@H](O)C[C@@H](O)[C@H](O)CC[C@@H](O)C[C@@H](O)CC(=O)O[C@H]1C)C[C@H](O)[C@H]2C(=O)O [Compound N15, N-{3-[2-(4-methylpiperazin-1-yl)ethyl]thioureidyl}nystatin A1]
- Antifungal activity Candida krusei DSM 6128 MIC (Candida krusei DSM 6128): 16 µg/mL
- Antifungal activity Candida albicans ATCC 10231 IC50 [1]: 5.74 µg/mL
- Antifungal activity Candida albicans ATCC 10231 MIC [1]: 8 µg/mL
- Antifungal activity Candida tropicalis KKP 334 MIC [2]: 8 µg/mL
- Antifungal activity Saccharomyces cerevisiae ATCC 9763 MIC [3]: 8 µg/mL
- Antifungal activity Candida glabrata DSM 11226 MIC [4]: 16 µg/mL
- Antifungal activity Candida lusitaniae DSM 70102 MIC [5]: 4 µg/mL

SMILES: C[C@@H]1[C@H](O)[C@@H](C)/C=C/C=C/CC/C=C/C=C/C=C/C=C/[C@H](O[C@@H]2O[C@H](C)[C@@H](O)[C@H](NC(=S)NCCN3CCCC3)[C@@H]2O)C[C@@H]2O[C@](O)(C[C@@H](O)C[C@@H](O)[C@H](O)CC[C@@H](O)C[C@@H](O)CC(=O)O[C@H]1C)C[C@H](O)[C@H]2C(=O)O [Compound N16, N-{3-[2-(pyrrolidin-1-yl)ethyl]thioureidyl}nystatin A1]
- Antifungal activity Candida krusei DSM 6128 MIC (Candida krusei DSM 6128): 8 µg/mL
- Antifungal activity Candida albicans ATCC 10231 IC50 [1]: 3.04 µg/mL
- Antifungal activity Candida albicans ATCC 10231 MIC [1]: 4 µg/mL
- Antifungal activity Candida tropicalis KKP 334 MIC [2]: 4 µg/mL
- Antifungal activity Saccharomyces cerevisiae ATCC 9763 MIC [3]: 4 µg/mL
- Antifungal activity Candida glabrata DSM 11226 MIC [4]: 8 µg/mL
- Antifungal activity Candida lusitaniae DSM 70102 MIC [5]: 4 µg/mL

SMILES: C[C@@H]1[C@H](O)[C@@H](C)/C=C/C=C/CC/C=C/C=C/C=C/C=C/[C@H](O[C@@H]2O[C@H](C)[C@@H](O)[C@H](NC(=S)NCCN(C)C)[C@@H]2O)C[C@@H]2O[C@](O)(C[C@@H](O)C[C@@H](O)[C@H](O)CC[C@@H](O)C[C@@H](O)CC(=O)O[C@H]1C)C[C@H](O)[C@H]2C(=O)O [Compound N18, N-{3-[2-(N,N-dimethylamino)ethyl]thioureidyl}nystatin A1]
- Antifungal activity Candida krusei DSM 6128 MIC (Candida krusei DSM 6128): 8 µg/mL
- Antifungal activity Candida albicans ATCC 10231 IC50 [1]: 2.97 µg/mL
- Antifungal activity Candida albicans ATCC 10231 MIC [1]: 4 µg/mL
- Antifungal activity Candida tropicalis KKP 334 MIC [2]: 4 µg/mL
- Antifungal activity Saccharomyces cerevisiae ATCC 9763 MIC [3]: 4 µg/mL
- Antifungal activity Candida glabrata DSM 11226 MIC [4]: 8 µg/mL
- Antifungal activity Candida lusitaniae DSM 70102 MIC [5]: 4 µg/mL

SMILES: CCN(CC1(O)OCC(O)C(O)C1O)C1C(O)C(C)OC(OC2C=CC=CC=CC=CCCC=CC=CC(C)C(O)C(C)C(C)OC(=O)CC(O)CC(O)CC(O)CCC(O)C(O)CC3(O)CC(O)C(C(=O)O)C(C2)O3)C1O (stereo not drawn) [Compound N29, N-fructosyl-N-ethylnystatin A1]
- Antifungal activity Candida krusei DSM 6128 MIC (Candida krusei DSM 6128): 16 µg/mL
- Antifungal activity Candida albicans ATCC 10231 IC50 [1]: 3.56 µg/mL
- Antifungal activity Candida albicans ATCC 10231 MIC [1]: 8 µg/mL
- Antifungal activity Candida tropicalis KKP 334 MIC [2]: 8 µg/mL
- Antifungal activity Saccharomyces cerevisiae ATCC 9763 MIC [3]: 8 µg/mL
- Antifungal activity Candida glabrata DSM 11226 MIC [4]: 16 µg/mL
- Antifungal activity Candida lusitaniae DSM 70102 MIC [5]: 8 µg/mL

SMILES: CC1C=CC=CCCC=CC=CC=CC=CC(OC2OC(C)C(O)C(N(CCCN(C)C)CC3(O)OCC(O)C(O)C3O)C2O)CC2OC(O)(CC(O)C(O)CCC(O)CC(O)CC(O)CC(=O)OC(C)C(C)C1O)CC(O)C2C(=O)O (stereo not drawn) [Compound N30, N-fructosyl-N-[3-(N′,N′-dimethylamin)propyl]nystatin A1]
- Antifungal activity Candida krusei DSM 6128 MIC (Candida krusei DSM 6128): 16 µg/mL
- Antifungal activity Candida albicans ATCC 10231 IC50 [1]: 5.79 µg/mL
- Antifungal activity Candida albicans ATCC 10231 MIC [1]: 8 µg/mL
- Antifungal activity Candida tropicalis KKP 334 MIC [2]: 16 µg/mL
- Antifungal activity Saccharomyces cerevisiae ATCC 9763 MIC [3]: 8 µg/mL
- Antifungal activity Candida glabrata DSM 11226 MIC [4]: 16 µg/mL
- Antifungal activity Candida lusitaniae DSM 70102 MIC [5]: 8 µg/mL
